In patent US10202413B2, “Neuroactive enantiomeric 15-, 16- and 17-substituted steroids as modulators for GABA type-A receptors” (priority 2013, dated 2019):
Where two headings read alike, the source gives them in different places. Marks after values point to notes of the source that are not given here.

Experiments:
[1] = molecular target: picrotoxin binding site on GABAA receptors; test: [35S]-TBPS displacement (inhibition of [35S]-TBPS binding); conditions: non-competitive displacement of [35S]-TBPS; ± standard error of the mean
Description: The IC50 values for the compounds of the examples as non-competitive displacers of [^35S]-TBPS from the picrotoxin binding site on GABAA receptors are reported in Table 1.
Results presented are from duplicate experiments performed in triplicate. Error limits are calculated as standard error of the mean. Methods used are known in the art (see, e.g., Jiang, et al., Neurosteroid analogues. 9. Conformationally constrained pregnanes: structure-activity studies of 13,24-cyclo-18,21-dinorcholane analogues of the GABA modulatory and anesthetic steroids (3α,5α)- and (3α,5β)-3-hydroxypregnan-20-one. J. Med. Chem. 2003, 46, 5334-5348).

[2] = molecular target: T1, rat α1β2γ2L type GABAA receptors expressed in Xenopus laevis oocytes (Rattus norvegicus, UniProt P18508+P62813+P63138, INS375LLRMFSFK); test: Oocyte electrophysiology: potentiation of chloride currents mediated by 2 μM GABA, and direct gating; format: cell-based; conditions: ± SEM (N≥4); for ratio of currents measured in the presence/absence of added compound, 0.1 μM: 0.1 μM compound; for ratio of currents measured in the presence/absence of added compound, 0.1 μM / ratio of currents measured in the presence/absence of added compound, 1.0 μM / ratio of currents measured in the presence/absence of added compound, 10 μM: 2 μM GABA; for ratio of currents measured in the presence/absence of added compound, 1.0 μM: 1.0 μM compound; for ratio of currents measured in the presence/absence of added compound, 10 μM: 10 μM compound; for (gating) 10 μM: ratio of compound only current/GABA current: direct current gated by 10 μM compound in the absence of GABA
T1 construct: expressed in transfected cells; host or cells: Xenopus laevis oocytes
Description: The compounds of the present disclosure were evaluated for the ability to potentiate chloride currents mediated by 2 μM GABA at rat α1β2γ2L type GABAA receptors expressed in Xenopus laevis oocytes and the results are shown in Table 2.
The GABA concentration used for the control response was 2 μM. Each compound was evaluated on at least four different oocytes at the concentrations indicated, and the results reported are the ratio of currents measured in the presence/absence of added compound. Gating represents direct current gated by 10 μM compound in the absence of GABA, and this current is reported as the ratio of compound only current/[…] current. Error limits are calculated as standard error of the mean (N≥4). Receptor expression and whole-cell and single-channel recordings were carried out as described previously (see Jiang, et al., Neurosteroid analogues. 9. Conformationally constrained pregnanes: structure-activity studies of 13,24-cyclo-18,21-dinorcholane analogues of the GABA modulatory and anesthetic steroids (3α,5α)- and (3α,5β)-3-hydroxypregnan-20-one. J. Med. Chem. 2003, 46, 5334-5348).

[3] = test system: Tadpole; test: Tadpole loss of righting (LRR) and loss of swimming (LSR) reflexes; format: in vivo; conditions: for tadpoles that lost LRR / tadpoles that lost LSR: concentration of 3 μM, number of 10 tadpoles; for EC50: ± SEM
From the text: Table 3 discloses the anesthetic effects of the compounds of the present disclosure. In particular, the anesthetic effect of the compounds of the present disclosure on Loss of Righting Reflex (LRR) and Loss of Swimming Reflex (LSR).
Methods used are known in the art (see, e.g., Jiang, et al., Neurosteroid analogues. 9. Conformationally constrained pregnanes: structure-activity studies of 13,24-cyclo-18,21-dinorcholane analogues of the GABA modulatory and anesthetic steroids (3α,5α)- and (3α,5β)-3-hydroxypregnan-20-one. J. Med. Chem. 2003, 46, 5334-5348). Error limits are calculated as standard error of the mean (N=10 or more animals at each of five or more different concentrations).

[4] = loss of righting reflex, read-out: Tadpole LRR EC50
[5] = loss of swimming reflex, read-out: Tadpole LSR EC50

T1 sequence (P62813 28-455, stated change not applied): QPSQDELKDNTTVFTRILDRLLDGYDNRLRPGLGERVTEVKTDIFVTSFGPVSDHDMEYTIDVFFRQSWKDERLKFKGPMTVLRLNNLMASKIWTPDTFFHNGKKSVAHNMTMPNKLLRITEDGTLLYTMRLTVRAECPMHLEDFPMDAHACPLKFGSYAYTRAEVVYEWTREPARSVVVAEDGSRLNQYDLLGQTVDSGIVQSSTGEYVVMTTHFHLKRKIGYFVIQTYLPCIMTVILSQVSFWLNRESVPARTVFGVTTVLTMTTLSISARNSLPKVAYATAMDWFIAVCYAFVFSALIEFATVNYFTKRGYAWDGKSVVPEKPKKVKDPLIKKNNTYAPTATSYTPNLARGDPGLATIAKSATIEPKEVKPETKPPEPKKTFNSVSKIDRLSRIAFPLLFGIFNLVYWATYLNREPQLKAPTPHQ
T1 sequence (P63138 26-474, stated change not applied): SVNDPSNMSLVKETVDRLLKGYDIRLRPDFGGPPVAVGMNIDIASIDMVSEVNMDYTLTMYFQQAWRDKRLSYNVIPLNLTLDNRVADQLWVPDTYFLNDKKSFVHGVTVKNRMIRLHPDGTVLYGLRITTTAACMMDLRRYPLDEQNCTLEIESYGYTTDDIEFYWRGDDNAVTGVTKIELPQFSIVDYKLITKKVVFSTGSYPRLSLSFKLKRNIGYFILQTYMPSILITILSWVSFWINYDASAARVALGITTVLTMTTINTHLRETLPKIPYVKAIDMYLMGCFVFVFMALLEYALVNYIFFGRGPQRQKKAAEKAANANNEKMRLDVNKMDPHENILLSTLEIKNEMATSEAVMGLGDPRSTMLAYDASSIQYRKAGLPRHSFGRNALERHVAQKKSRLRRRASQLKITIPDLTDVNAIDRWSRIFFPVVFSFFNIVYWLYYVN
T1 sequence (P18508 with tags, fused parts or gaps INS375LLRMFSFK): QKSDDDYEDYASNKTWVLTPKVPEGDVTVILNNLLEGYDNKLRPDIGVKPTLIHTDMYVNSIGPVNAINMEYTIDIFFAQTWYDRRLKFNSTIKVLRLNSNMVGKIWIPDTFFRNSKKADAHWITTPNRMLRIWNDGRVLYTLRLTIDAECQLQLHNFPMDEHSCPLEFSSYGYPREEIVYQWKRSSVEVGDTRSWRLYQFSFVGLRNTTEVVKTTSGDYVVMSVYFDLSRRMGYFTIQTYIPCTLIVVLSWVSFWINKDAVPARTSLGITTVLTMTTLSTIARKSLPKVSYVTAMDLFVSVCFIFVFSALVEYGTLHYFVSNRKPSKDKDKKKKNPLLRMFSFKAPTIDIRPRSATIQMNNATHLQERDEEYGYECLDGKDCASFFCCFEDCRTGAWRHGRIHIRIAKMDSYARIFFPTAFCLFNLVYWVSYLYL

## CO[C@@H]1C[C@@H]2[C@H]3CC[C@@H]4C[C@@H](O)CC[C@@]4(C)[C@@H]3CC[C@@]2(C)C1 [KK-134, (3β,5β,8α,9β,10α,13α,14β,16α)-16-Methoxyandrostan-3-ol]
[1]
  IC50: 92 ± 9 nM
[2]
  ratio of currents measured in the presence/absence of added compound, 0.1 μM: 1.16 ± 0.07
  ratio of currents measured in the presence/absence of added compound, 1.0 μM: 5.22 ± 1.09
  ratio of currents measured in the presence/absence of added compound, 10 μM: 8.27 ± 1.27
  (gating) 10 μM: ratio of compound only current/GABA current: 0.04 ± 0.05
[3]
  tadpoles that lost LRR: 10/10^a
  tadpoles that lost LSR: 10/10^a
other
  melting point: 169 to 171 °C

## C[C@@]12CC[C@@H]3[C@H](CC[C@H]4C[C@@H](O)CC[C@]43C)[C@H]1CC(=O)C2 [KK-97, (3β,5α,8α,9β,10α,13α,14β)-3-Hydroxyandrostan-16-one]
[1]
  IC50: 112 ± 7 nM
[2]
  ratio of currents measured in the presence/absence of added compound, 0.1 μM: 1.75 ± 0.24
  ratio of currents measured in the presence/absence of added compound, 1.0 μM: 6.15 ± 0.41
  ratio of currents measured in the presence/absence of added compound, 10 μM: 30.62 ± 2.14
  (gating) 10 μM: ratio of compound only current/GABA current: 0.16 ± 0.04
[3]; [4]
  EC50: 490 ± 110 nM
[3]; [5]
  EC50: 1730 ± 30 nM
other
  melting point: 132 to 134 °C

## C[C@@]12CC[C@H](O)C[C@H]1CC[C@@H]1[C@H]3CC(=O)C[C@@H]3CC[C@H]12 [KK-114]
[1]
  IC50: 1520 nM
[2]
  ratio of currents measured in the presence/absence of added compound, 0.1 μM: 0.93 ± 0.02
  ratio of currents measured in the presence/absence of added compound, 1.0 μM: 1.13 ± 0.02
  ratio of currents measured in the presence/absence of added compound, 10 μM: 3.56 ± 0.15
  (gating) 10 μM: ratio of compound only current/GABA current: 0.01 ± 0.02
[3]; [4]
  EC50: 3640 ± 2170 nM
[3]; [5]
  EC50: > 10000 nM
other
  melting point: 174 to 177 °C

## C[C@@]12CC[C@H](O)C[C@H]1CC[C@H]1[C@H]2CC[C@@]2(C)C=C(C#N)C[C@H]12 [KK-141, (3β,5β,8α,9β,10α,13α,14β)-3-Hydroxyandrost-16-ene-16-carbonitrile]
[1]
  IC50: 154 ± 19 nM
[2]
  ratio of currents measured in the presence/absence of added compound, 0.1 μM: 1.08 ± 0.11
  ratio of currents measured in the presence/absence of added compound, 1.0 μM: 1.35 ± 0.08
  ratio of currents measured in the presence/absence of added compound, 10 μM: 1.58 ± 0.13
  (gating) 10 μM: ratio of compound only current/GABA current: 0.08 ± 0.06
[3]
  tadpoles that lost LRR: 5/10^b
  tadpoles that lost LSR: 0/10^c
other
  melting point: 247 to 249 °C

## C[C@]1(O)CC[C@]2(C)[C@H](CC[C@H]3[C@H]2CC[C@@]2(C)C(=O)CC[C@H]32)C1 [KK-23, (3β,5β,8α,9β,10α,13α,14β)-3-Hydroxy-3-methylandrostan-17-one]
[1]
  IC50: 185 ± 28 nM
[2]
  ratio of currents measured in the presence/absence of added compound, 0.1 μM: 1.11 ± 0.15
  ratio of currents measured in the presence/absence of added compound, 1.0 μM: 3.31 ± 0.43
  ratio of currents measured in the presence/absence of added compound, 10 μM: 19.74 ± 5.64
  (gating) 10 μM: ratio of compound only current/GABA current: 0.09 ± 0.02
[3]; [4]
  EC50: 930 ± 530 nM
[3]; [5]
  EC50: 2810 ± 10 nM
other
  melting point: 183 to 185 °C

## C[C@@]12CC[C@@H]3[C@H](CC[C@@H]4C[C@@H](O)CC[C@]43C)[C@H]1C[C@@H](C#N)C2 [KK-142, (3β,5β,8α,9β,10α,13α,14β,16α)-3-Hydroxyandrost-16-carbonitrile]
[1]
  IC50: 29 ± 3 nM
[2]
  ratio of currents measured in the presence/absence of added compound, 0.1 μM: 2.20 ± 0.20
  ratio of currents measured in the presence/absence of added compound, 1.0 μM: 8.83 ± 3.12
  ratio of currents measured in the presence/absence of added compound, 10 μM: 13.32 ± 4.54
  (gating) 10 μM: ratio of compound only current/GABA current: 0.03 ± 0.01
[3]
  tadpoles that lost LRR: 10/10^a
  tadpoles that lost LSR: 10/10^a
other
  melting point: 206 to 208 °C

## C[C@@]12CC[C@H]3[C@@H]4CC[C@H](O)C[C@@H]4CC[C@@H]3[C@H]1CC(=O)C2 [KK-102]
[1]
  IC50: 146 ± 18 nM
[2]
  ratio of currents measured in the presence/absence of added compound, 0.1 μM: 1.20 ± 0.02
  ratio of currents measured in the presence/absence of added compound, 1.0 μM: 4.23 ± 0.24
  ratio of currents measured in the presence/absence of added compound, 10 μM: 13.91 ± 1.38
  (gating) 10 μM: ratio of compound only current/GABA current: 0.04 ± 0.0
[3]; [4]
  EC50: 1210 ± 420 nM
[3]; [5]
  EC50: 5480 ± 120 nM
other
  melting point: 139 to 142 °C

## C[C@@]12CC[C@H](O)C[C@@H]1CC[C@H]1[C@H]2CC[C@@]2(C)C=C(C#N)C[C@H]12 [KK-136, (3β,5α,8α,9β,10α,13α,14β)-3-Hydroxyandrost-16-ene-16-carbonitrile]
[1]
  IC50: 335 ± 27 nM
[2]
  ratio of currents measured in the presence/absence of added compound, 0.1 μM: 0.98 ± 0.02
  ratio of currents measured in the presence/absence of added compound, 1.0 μM: 1.98 ± 0.14
  ratio of currents measured in the presence/absence of added compound, 10 μM: 10.04 ± 1.26
  (gating) 10 μM: ratio of compound only current/GABA current: 0.29 ± 0.25
[3]; [4]
  EC50: 480 ± 20 nM
[3]; [5]
  EC50: 1730 ± 30 nM
other
  melting point: 195 to 197 °C

## C[C@]1(O)CC[C@]2(C)[C@@H](CC[C@H]3[C@H]2CC[C@@]2(C)C(=O)CC[C@H]32)C1 [KK-26, (3β,5α,8α,9β,10α,13α,14β)-3-Hydroxy-3-methylandrostan-17-one]
[1]
  IC50: 290 ± 33 nM
[2]
  ratio of currents measured in the presence/absence of added compound, 0.1 μM: 1.38 ± 0.10
  ratio of currents measured in the presence/absence of added compound, 1.0 μM: 5.10 ± 0.64
  ratio of currents measured in the presence/absence of added compound, 10 μM: 23.74 ± 2.88
  (gating) 10 μM: ratio of compound only current/GABA current: 0.49 ± 0.18
[3]; [4]
  EC50: 1880 nM
[3]; [5]
  EC50: 5480 ± 200 nM

## CC(=O)[C@@H]1C[C@@H]2[C@H]3CC[C@@H]4C[C@@H](O)CC[C@@]4(C)[C@@H]3CC[C@@]2(C)C1 [KK-135, (3β,5β,8α,9β,10α,13α,14β,16α)-16-Acetylandrostan-3-ol]
[1]
  IC50: 184 ± 11 nM
[2]
  ratio of currents measured in the presence/absence of added compound, 0.1 μM: 1.17 ± 0.09
  ratio of currents measured in the presence/absence of added compound, 1.0 μM: 3.26 ± 0.31
  ratio of currents measured in the presence/absence of added compound, 10 μM: 6.21 ± 0.31
  (gating) 10 μM: ratio of compound only current/GABA current: −0.04 ± 0.06
[3]
  tadpoles that lost LRR: 10/10^a
  tadpoles that lost LSR: 10/10^a
other
  melting point: 169 to 172 °C

## O=C1C[C@@H]2CC[C@@H]3[C@H](CC[C@@H]4C[C@@H](O)CC[C@H]43)[C@H]2C1
other
  melting point: 168 to 169 °C

## C[C@@]12CC[C@@H]3[C@H](CC[C@H]4C[C@@H](O)CC[C@]43C)[C@H]1C[C@@H](C#N)C2 [KK-137, (3β,5α,8α,9β,10α,13α,14β,16α)-3-Hydroxyandrost-16-carbonitrile]
[1]
  IC50: 22 ± 4 nM
[2]
  ratio of currents measured in the presence/absence of added compound, 0.1 μM: 2.32 ± 0.17
  ratio of currents measured in the presence/absence of added compound, 1.0 μM: 7.08 ± 0.54
  ratio of currents measured in the presence/absence of added compound, 10 μM: 10.17 ± 0.68
  (gating) 10 μM: ratio of compound only current/GABA current: −0.04 ± 0.08
[3]; [4]
  EC50: 130 nM
[3]; [5]
  EC50: 550 ± 10 nM
other
  melting point: 155 to 157 °C

## C[C@@]12CC[C@H]3[C@@H]4CC[C@H](O)C[C@H]4CC[C@@H]3[C@H]1CCC2=O [KK-18, (3β,5β,8α,9β,10α,13α,14β)-3-Hydroxyestran-17-one]
[1]
  IC50: 627 ± 100 nM
[2]
  ratio of currents measured in the presence/absence of added compound, 0.1 μM: 1.07 ± 0.05
  ratio of currents measured in the presence/absence of added compound, 1.0 μM: 1.64 ± 0.11
  ratio of currents measured in the presence/absence of added compound, 10 μM: 9.34 ± 1.36
  (gating) 10 μM: ratio of compound only current/GABA current: 0.13 ± 0.12
[3]; [4]
  EC50: 3200 ± 2030 nM
[3]; [5]
  EC50: > 10000 nM
